{"source": "patent US4548922A", "about": "“Drug administration” (Beth Israel Hospital, priority 1983, dated 1985)"}
{"experiment": "k' factor value (hydrophobicity) by high-performance liquid column chromatography on octadecylsilane column", "format": "physicochemical", "settings": "unconjugated steroid; 75% methanol in water, apparent pH 5.0, octadecylsilane column", "protocol": "Preferably the steroid used in the invention is characterized in that the unconjugated derivative of the steroid is retained on a hydrophobic column for a length of time sufficient to produce a k' factor value of at least 7, the k' factor value being obtained by subjecting a monomeric solution of 1 mg/ml of such steroid derivative to high-performance liquid column chromatography at 3,000 psi, using a 250×4.6 mm column having octadecylsilane-coated 5 μm micro silica particles as the stationary phase and a mobile phase, delivered at 1.0 ml/min., consisting of 75% methanol in water, v/v, buffered with 0.005 M KH2 PO4 /H3 PO4 to give an apparent pH value, as measured using a glass electrode, of 5.0, the k' factor value being defined by k'=(tr -t0)/t0, where t0 is the retention time in the column of the solvent front and tr is the retention time in the column of the steroid derivative as measured by obtaining the elution profile of the steroid derivative by absorbance at 210 nm.\nThe structure of the steroid molecule affects its chemical properties and thus its functioning as a drug transporting molecule. We believe that all of the steroid molecules used in the invention facilitate transport by self-associating to form reversed micelles within the membrane across which the drug is being transported; these reversed micelles, it is believed, function as pores, allowing the drug to pass through. A measure of the ability of a given steroid molecule's ability to form such reversed micelles is the hydrophobicity of the unconjugated form of the molecule, a property which can be quantified using the k' factor value, which is computed by observing the steroid's retention time in a high-performance liquid chromatography (HPLC) column under the conditions described above. As mentioned above, the k' factor value of the unconjugated derivative of the steroid should be at least 7 for the steroid to be suitable in the therapeutic compositions of the invention."}
{"compound": "CC(=O)O[C@@H]1[C@H]2[C@H](C)[C@H](O)CC[C@]2(C)[C@@H]2CC[C@H]3/C(=C(\\CCC=C(C)C)C(=O)O)[C@@H](OC(C)=O)C[C@]3(C)[C@@]2(C)[C@H]1O", "note": "[cephalosporin P1]", "k' factor value": 9.5}
{"compound": "CC(=O)O[C@H]1C[C@@]2(C)[C@@H](CC[C@H]3[C@@]4(C)C=CC(=O)[C@@H](C)[C@@H]4[C@H](OC(C)=O)C(=O)[C@@]32C)/C1=C(\\CCC=C(C)C)C(=O)O", "note": "[helvolic acid]", "k' factor value": 4.7}
{"compound": "C[C@H](CCC(=O)O)[C@H]1CC[C@H]2[C@@H]3[C@@H](O)C[C@@H]4C[C@H](O)CC[C@]4(C)[C@H]3CC[C@]12C", "note": "[ursodeoxycholic acid]", "k' factor value": 4.7}
